In paper PMC5218480 (PLoS ONE, 2017):

System: MV-4-11 cells
Experiment: Gene expression microarray analysis (Affymetrix PrimeView) and GSEA
Assay type: cell-based, human
Set-up: RFU PODN (11730768_x_at) / Fold change /veh PODN (11730768_x_at) / RFU LINC00158 (11744669_a_at) / Fold change /veh LINC00158 (11744669_a_at) / RFU DUSP10 (11751237_a_at) / Fold change /veh DUSP10 (11751237_a_at) / RFU ID3 (11757404_x_at) / Fold change /veh ID3 (11757404_x_at) / RFU PLEKHG5 (11737974_s_at) / Fold change /veh PLEKHG5 (11737974_s_at) / RFU LRRC4B (11730491_at) / Fold change /veh LRRC4B (11730491_at) / RFU GIMAP4 (11747438_a_at) / Fold change /veh GIMAP4 (11747438_a_at) / RFU KRT8 (11758183_x_at) / Fold change /veh KRT8 (11758183_x_at) / RFU CNN1 (11734310_a_at) / Fold change /veh CNN1 (11734310_a_at) / RFU VPS37D (11726825_at) / Fold change /veh VPS37D (11726825_at) / RFU C10orf10 (11716522_x_at) / Fold change /veh C10orf10 (11716522_x_at) / RFU KIR2DL2 /// KIR2DL4 /// KIR2DL5A /// KIR2DL5B /// KIR2DS1 /// KIR2DS2 /// KIR2DS3 /// KIR2DS4 /// KIR3DL3 /// KIR3DL3 /// KIR3DS1 (11738374_at) / Fold change /veh KIR2DL2 /// KIR2DL4 /// KIR2DL5A /// KIR2DL5B /// KIR2DS1 /// KIR2DS2 /// KIR2DS3 /// KIR2DS4 /// KIR3DL3 /// KIR3DL3 /// KIR3DS1 (11738374_at) / RFU C1QL1 (11718748_at) / Fold change /veh C1QL1 (11718748_at) / RFU TMPRSS4 (11747572_a_at) / Fold change /veh TMPRSS4 (11747572_a_at) / RFU HAMP (11756126_x_at) / Fold change /veh HAMP (11756126_x_at) / RFU RNFT2 (11725882_a_at) / Fold change /veh RNFT2 (11725882_a_at) / RFU NR4A2 (11747474_a_at) / Fold change /veh NR4A2 (11747474_a_at) / RFU ABCC12 (11746883_a_at) / Fold change /veh ABCC12 (11746883_a_at) / RFU TMEM136 (11760407_x_at) / Fold change /veh TMEM136 (11760407_x_at) / RFU CLDN22 /// WWC2 (11732394_at) / Fold change /veh CLDN22 /// WWC2 (11732394_at) / RFU HLA-DPB1 (11760878_x_at) / Fold change /veh HLA-DPB1 (11760878_x_at) / RFU SPINT1 (11716480_a_at) / Fold change /veh SPINT1 (11716480_a_at) / RFU GAP43 (11754022_s_at) / Fold change /veh GAP43 (11754022_s_at) / RFU A4GNT (11735810_at) / Fold change /veh A4GNT (11735810_at) / RFU PRB3 (11715151_x_at) / Fold change /veh PRB3 (11715151_x_at) / RFU TUBB4B (11761932_at) / Fold change /veh TUBB4B (11761932_at) / RFU CAPN14 (11732068_a_at) / Fold change /veh CAPN14 (11732068_a_at) / RFU TMCC2 (11721928_a_at) / Fold change /veh TMCC2 (11721928_a_at) / RFU IRGQ (11745062_a_at) / Fold change /veh IRGQ (11745062_a_at) / RFU FAM174B (11720279_a_at) / Fold change /veh FAM174B (11720279_a_at) / RFU TMPRSS4 (11748680_a_at) / Fold change /veh TMPRSS4 (11748680_a_at) / RFU FAM212B (11763350_a_at) / Fold change /veh FAM212B (11763350_a_at) / RFU PLEKHG5 (11743358_a_at) / Fold change /veh PLEKHG5 (11743358_a_at) / RFU ZSCAN30 (11745921_a_at) / Fold change /veh ZSCAN30 (11745921_a_at) / RFU CMKLR1 (11741424_a_at) / Fold change /veh CMKLR1 (11741424_a_at) / RFU LOC101060620 /// MAPK8IP1 (11723275_at) / Fold change /veh LOC101060620 /// MAPK8IP1 (11723275_at) / RFU SPTSSB (11747773_x_at) / Fold change /veh SPTSSB (11747773_x_at) / RFU PRSS12 (11739890_at) / Fold change /veh PRSS12 (11739890_at) / RFU BIN1 (11741810_x_at) / Fold change /veh BIN1 (11741810_x_at) / RFU WNT11 (11732464_a_at) / Fold change /veh WNT11 (11732464_a_at) / RFU C10orf10 (11716521_a_at) / Fold change /veh C10orf10 (11716521_a_at) / RFU C5orf56 (11738089_at) / Fold change /veh C5orf56 (11738089_at) / RFU CYB561 (11721691_x_at) / Fold change /veh CYB561 (11721691_x_at) / RFU ANKRD19P (11752326_a_at) / Fold change /veh ANKRD19P (11752326_a_at) / RFU OR2T12 /// OR2T33 /// OR2T8 (11738714_s_at) / Fold change /veh OR2T12 /// OR2T33 /// OR2T8 (11738714_s_at) / RFU VCAN (11748164_a_at) / Fold change /veh VCAN (11748164_a_at) / RFU JSRP1 (11732532_at) / Fold change /veh JSRP1 (11732532_at) / RFU KRTAP10-11 (11738290_x_at) / Fold change /veh KRTAP10-11 (11738290_x_at) / RFU MYO3A (11730013_a_at) / Fold change /veh MYO3A (11730013_a_at) / RFU EBF3 (11725865_a_at) / Fold change /veh EBF3 (11725865_a_at) / RFU CAMK2N1 (11719241_x_at) / Fold change /veh CAMK2N1 (11719241_x_at) / RFU C5orf56 (11738088_a_at) / Fold change /veh C5orf56 (11738088_a_at) / RFU OLFML3 (11715873_a_at) / Fold change /veh OLFML3 (11715873_a_at) / RFU LOC100653217 /// NTM (11731650_a_at) / Fold change /veh LOC100653217 /// NTM (11731650_a_at) / RFU MAPK11 (11762145_a_at) / Fold change /veh MAPK11 (11762145_a_at) / RFU FIZ1 (11724087_x_at) / Fold change /veh FIZ1 (11724087_x_at) / RFU OASL (11726364_x_at) / Fold change /veh OASL (11726364_x_at) / RFU SOX15 (11748057_x_at) / Fold change /veh SOX15 (11748057_x_at) / RFU CD79A (11719716_a_at) / Fold change /veh CD79A (11719716_a_at) / RFU HIST1H1D (11736915_at) / Fold change /veh HIST1H1D (11736915_at) / RFU CASKIN2 (11723855_a_at) / Fold change /veh CASKIN2 (11723855_a_at) / RFU LOC730098 (11760151_x_at) / Fold change /veh LOC730098 (11760151_x_at) / RFU OR4N2 (11742367_at) / Fold change /veh OR4N2 (11742367_at) / RFU PRRT2 (11749266_a_at) / Fold change /veh PRRT2 (11749266_a_at) / RFU SNX32 (11753110_a_at) / Fold change /veh SNX32 (11753110_a_at) / RFU CDHR5 (11726645_a_at) / Fold change /veh CDHR5 (11726645_a_at) / RFU RCAN1 (11760418_a_at) / Fold change /veh RCAN1 (11760418_a_at) / RFU FAM167A (11723789_a_at) / Fold change /veh FAM167A (11723789_a_at) / RFU FAM26E (11764081_at) / Fold change /veh FAM26E (11764081_at) / RFU ISYNA1 (11749810_s_at) / Fold change /veh ISYNA1 (11749810_s_at) / RFU ACY1 (11761880_at) / Fold change /veh ACY1 (11761880_at) / RFU 11764098_at / Fold change /veh 11764098_at / RFU SAMD14 (11745864_x_at) / Fold change /veh SAMD14 (11745864_x_at) / RFU NPB (11741838_a_at) / Fold change /veh NPB (11741838_a_at) / RFU TMPRSS6 (11731388_a_at) / Fold change /veh TMPRSS6 (11731388_a_at) / RFU KRTAP10-2 (11738614_at) / Fold change /veh KRTAP10-2 (11738614_at) / RFU ARHGAP8 /// PRR5-ARHGAP8 (11727945_x_at) / Fold change /veh ARHGAP8 /// PRR5-ARHGAP8 (11727945_x_at) / RFU KRTAP5-7 /// NADSYN1 (11734609_at) / Fold change /veh KRTAP5-7 /// NADSYN1 (11734609_at) / RFU RASL12 (11751679_a_at) / Fold change /veh RASL12 (11751679_a_at) / RFU CDKN2B (11736163_a_at) / Fold change /veh CDKN2B (11736163_a_at) / RFU PRF1 (11729649_at) / Fold change /veh PRF1 (11729649_at) / RFU, ZNF638 /// ZNF638-IT1 / Fold change vs veh, ZNF638 /// ZNF638-IT1 / RFU, PANK3 / Fold change vs veh, PANK3 / RFU, SH3YL1 / Fold change vs veh, SH3YL1 / RFU, ZEB2 / Fold change vs veh, ZEB2 / RFU, NRIP1 / Fold change vs veh, NRIP1 / RFU, PTTG1IP / Fold change vs veh, PTTG1IP / RFU, CAPN2 / Fold change vs veh, CAPN2 / RFU, MED14 / Fold change vs veh, MED14 / RFU, SNORA58 / Fold change vs veh, SNORA58 / RFU, C1orf63 / Fold change vs veh, C1orf63 / RFU, LRRFIP1 / Fold change vs veh, LRRFIP1 / RFU, NDUFAF7 / Fold change vs veh, NDUFAF7 / RFU, SLC12A2 / Fold change vs veh, SLC12A2 / RFU, IBTK / Fold change vs veh, IBTK / RFU, ESF1 / Fold change vs veh, ESF1 / Fold change vs veh, TMEM50B / RFU, TAOK1 / Fold change vs veh, TAOK1 / RFU, ACBD3 / Fold change vs veh, ACBD3 / RFU, TMA16 / Fold change vs veh, TMA16 / RFU, RWDD3 / Fold change vs veh, RWDD3 / RFU, BCAT1 / Fold change vs veh, BCAT1 / RFU, EDEM3 / Fold change vs veh, EDEM3 / RFU, TMEM33 / Fold change vs veh, TMEM33 / RFU, WDR75 / Fold change vs veh, WDR75 / RFU, AHCTF1 / Fold change vs veh, AHCTF1 / RFU, TFRC / Fold change vs veh, TFRC / RFU, ZDHHC17 / Fold change vs veh, ZDHHC17 / RFU, NOM1 / Fold change vs veh, NOM1 / RFU, ARL8B / Fold change vs veh, ARL8B / RFU, ZBTB11 / Fold change vs veh, ZBTB11 / RFU, TAMM41 / Fold change vs veh, TAMM41 / RFU, KIAA1704 /// LOC100996395 / Fold change vs veh, KIAA1704 /// LOC100996395 / RFU, ING1 / Fold change vs veh, ING1 / RFU, TRMT61B / Fold change vs veh, TRMT61B / RFU, FUBP3 / Fold change vs veh, FUBP3 / RFU, TP53 / Fold change vs veh, TP53 / RFU, TNKS2 / Fold change vs veh, TNKS2 / RFU, ZFP14 / Fold change vs veh, ZFP14 / RFU, ACTR2 / Fold change vs veh, ACTR2 / RFU, PPP3R1 / Fold change vs veh, PPP3R1 / RFU, PIK3R1 / Fold change vs veh, PIK3R1 / RFU, HNRNPA1 / Fold change vs veh, HNRNPA1 / RFU, RNF170 / Fold change vs veh, RNF170 / RFU, ZNF28 / Fold change vs veh, ZNF28 / RFU, RNGTT / Fold change vs veh, RNGTT / RFU, OGT / Fold change vs veh, OGT / RFU, BRD1 / Fold change vs veh, BRD1 / RFU, MARS / Fold change vs veh, MARS / RFU, ZNF655 / Fold change vs veh, ZNF655 / RFU, FAHD1 / Fold change vs veh, FAHD1 / RFU, BDP1 / Fold change vs veh, BDP1 / RFU, LRRCC1 / Fold change vs veh, LRRCC1 / RFU, ARID1A / Fold change vs veh, ARID1A / RFU, ZNF146 / Fold change vs veh, ZNF146 / RFU, ZNF330 / Fold change vs veh, ZNF330 / RFU, GPN3 / Fold change vs veh, GPN3 / RFU, C9orf123 / Fold change vs veh, C9orf123 / RFU, N4BP2L2 / Fold change vs veh, N4BP2L2 / RFU, ARFIP1 / Fold change vs veh, ARFIP1 / RFU, FAM179B / Fold change vs veh, FAM179B / RFU, BCL10 / Fold change vs veh, BCL10 / RFU, UHRF1BP1L / Fold change vs veh, UHRF1BP1L / RFU, BET1 / Fold change vs veh, BET1 / RFU, CNOT2 / Fold change vs veh, CNOT2 / RFU, ZNF268 / Fold change vs veh, ZNF268 / Fold change vs veh, ZNF507 / RFU, DGCR2 / Fold change vs veh, DGCR2 / RFU, WDSUB1 / Fold change vs veh, WDSUB1 / Fold change vs veh, HSP90B1 /// MIR3652 / RFU, ADSS / Fold change vs veh, ADSS / RFU, GK / Fold change vs veh, GK / RFU, ZNF148 / Fold change vs veh, ZNF148 / RFU, TAF9 / Fold change vs veh, TAF9 / RFU, SLC1A5 / Fold change vs veh, SLC1A5 / RFU, SLMO2 / Fold change vs veh, SLMO2 / RFU, ABCC4 / Fold change vs veh, ABCC4 / RFU, LOC101060439 /// RAP1B / Fold change vs veh, LOC101060439 /// RAP1B / RFU, RFX7 / Fold change vs veh, RFX7 / RFU, GTPBP10 / Fold change vs veh, GTPBP10 / RFU, CNEP1R1 / Fold change vs veh, CNEP1R1 / RFU, BIVM-ERCC5 /// ERCC5 / Fold change vs veh, BIVM-ERCC5 /// ERCC5 / RFU, ILF3 / Fold change vs veh, ILF3 / RFU 11762660_at / Fold change /veh 11762660_at / RFU VCAN (11757783_s_at) / Fold change /veh VCAN (11757783_s_at) / RFU DDX43 (11728927_at) / Fold change /veh DDX43 (11728927_at) / RFU KRT8 (11758188_x_at) / Fold change /veh KRT8 (11758188_x_at) / RFU NKD1 (11759106_at) / Fold change /veh NKD1 (11759106_at) / RFU SRD5A1 (11742802_a_at) / Fold change /veh SRD5A1 (11742802_a_at) / RFU TPSAB1 /// TPSB2 (11721975_s_at) / Fold change /veh TPSAB1 /// TPSB2 (11721975_s_at) / RFU GSTM3 (11746129_a_at) / Fold change /veh GSTM3 (11746129_a_at) / RFU IL23R (11737362_x_at) / Fold change /veh IL23R (11737362_x_at) / RFU TMEM51 (11727254_a_at) / Fold change /veh TMEM51 (11727254_a_at) / RFU PIWIL2 (11732686_x_at) / Fold change /veh PIWIL2 (11732686_x_at) / RFU ORM1 (11744905_x_at) / Fold change /veh ORM1 (11744905_x_at) / RFU CCDC152 (11743942_at) / Fold change /veh CCDC152 (11743942_at) / RFU ECM1 (11717891_a_at) / Fold change /veh ECM1 (11717891_a_at) / RFU IL23R (11748794_a_at) / Fold change /veh IL23R (11748794_a_at) / RFU TNFAIP8L3 (11732012_x_at) / Fold change /veh TNFAIP8L3 (11732012_x_at) / RFU MBOAT4 (11741988_at) / Fold change /veh MBOAT4 (11741988_at) / RFU 11764193_at / Fold change /veh 11764193_at / RFU TMEM53 (11763286_at) / Fold change /veh TMEM53 (11763286_at) / RFU MAGEB2 (11727129_at) / Fold change /veh MAGEB2 (11727129_at) / RFU TMEM200A (11744735_a_at) / Fold change /veh TMEM200A (11744735_a_at) / RFU CCDC152 (11751479_a_at) / Fold change /veh CCDC152 (11751479_a_at) / RFU FAM211A (11726209_a_at) / Fold change /veh FAM211A (11726209_a_at) / RFU RGS16 (11746705_a_at) / Fold change /veh RGS16 (11746705_a_at) / RFU VCAN (11755009_s_at) / Fold change /veh VCAN (11755009_s_at) / RFU RHOB (11743442_s_at) / Fold change /veh RHOB (11743442_s_at) / RFU RGS16 (11720943_a_at) / Fold change /veh RGS16 (11720943_a_at) / RFU RGS16 (11720944_at) / Fold change /veh RGS16 (11720944_at) / RFU, VPS4B / Fold change vs veh, VPS4B / RFU, CREB1 / Fold change vs veh, CREB1 / RFU, DNAJC13 / Fold change vs veh, DNAJC13 / RFU, GNAQ / Fold change vs veh, GNAQ / RFU, CDK5R1 / Fold change vs veh, CDK5R1 / RFU, ZRANB3 / Fold change vs veh, ZRANB3 / RFU, CUL4A / Fold change vs veh, CUL4A / RFU, CCNY / Fold change vs veh, CCNY / RFU, UFL1 / Fold change vs veh, UFL1 / RFU, COG3 / Fold change vs veh, COG3 / RFU, DIAPH2 / Fold change vs veh, DIAPH2 / RFU, SKA2 / Fold change vs veh, SKA2 / RFU, AFF3 / Fold change vs veh, AFF3 / RFU, LMF1 / Fold change vs veh, LMF1 / RFU, IPO11 / Fold change vs veh, IPO11 / RFU, DFFB / Fold change vs veh, DFFB / RFU, FOXP1 / Fold change vs veh, FOXP1 / RFU, CARD8 / Fold change vs veh, CARD8 / RFU, STRN3 / Fold change vs veh, STRN3 / RFU, ADK / Fold change vs veh, ADK / RFU, RASSF2 / Fold change vs veh, RASSF2 / RFU, WIPF1 / Fold change vs veh, WIPF1 / RFU, LARP1B / Fold change vs veh, LARP1B / RFU, RASA1 / Fold change vs veh, RASA1 / RFU, RB1 / Fold change vs veh, RB1 / RFU, PPFIA1 / Fold change vs veh, PPFIA1 / RFU, MAT2A / Fold change vs veh, MAT2A / RFU, CCT5 / Fold change vs veh, CCT5 / RFU, WDR92 / Fold change vs veh, WDR92 / RFU, CUX1 / Fold change vs veh, CUX1 / RFU, TTC7A / Fold change vs veh, TTC7A / RFU, TMEM135 / Fold change vs veh, TMEM135 / RFU, DEPTOR / Fold change vs veh, DEPTOR / RFU, CPM / Fold change vs veh, CPM / RFU, DNAJB6 / Fold change vs veh, DNAJB6 / RFU, CACNA2D3 / Fold change vs veh, CACNA2D3 / RFU, DTX4 / Fold change vs veh, DTX4 / RFU, TFCP2 / Fold change vs veh, TFCP2 / RFU, GMCL1 /// GMCL1P1 / Fold change vs veh, GMCL1 /// GMCL1P1 / RFU, AEBP2 / Fold change vs veh, AEBP2 / RFU, SNHG1 /// SNORD22 /// SNORD25 /// SNORD26 /// SNORD27 /// SNORD28 /// SNORD29 /// SNORD31 / Fold change vs veh, SNHG1 /// SNORD22 /// SNORD25 /// SNORD26 /// SNORD27 /// SNORD28 /// SNORD29 /// SNORD31 / Fold change (Aza/veh), C12orf56 (ProbeSet 11735607_a_at) / Fold change (ACY-1035/veh), C12orf56 (ProbeSet 11735607_a_at) / Fold change (Aza/veh), FGFR1OP (ProbeSet 11751329_s_at) / Fold change (ACY-1035/veh), FGFR1OP (ProbeSet 11751329_s_at) / Fold change (Aza/veh), VPS36 (ProbeSet 11739960_a_at) / Fold change (ACY-1035/veh), VPS36 (ProbeSet 11739960_a_at) / RFU SYPL1 (11715823_x_at) / Fold change /veh SYPL1 (11715823_x_at) / RFU IGFBP7 (11715501_s_at) / Fold change /veh IGFBP7 (11715501_s_at) / RFU REEP3 (11722064_at) / Fold change /veh REEP3 (11722064_at) / RFU IGLL1 (11728026_x_at) / Fold change /veh IGLL1 (11728026_x_at): dose or concentration left out as unconfirmed
Settings: ProbeSet 11717702_a_at; LIST D

Compound: Nc1ccc(-c2cccs2)cc1NC(=O)c1ccc2c(c1)cc(C1CC1)n2CCN1CCOCC1 [ACY-1035]
- RFU, RB1: 245.16 RFU
